Like-named read-outs stand apart in the source and are kept apart here.
What was measured:
collagen IV [1] = tested on: collagen IV
Collagen IV [2] = test: Immunohistochemical staining of Collagen IV on formalin fixed paraffin embedded mouse brain sections after antigen retrieval with formaldehyde scavengers and enhancer; parameters: key: − being non-reactive; Immunoreactivity was scored on a scale of − to +++; Immunoreactivity was scored on a scale of − to +++; +++ being highly reactive; settings: 45 minutes at 95° C.
Procedure: 12-month-old C57Bl6J mice were housed under controlled environment conditions on a condition al 12 hour light dark cycle. Following sacrifice, brains were post-fixed in 4% paraformaldehyde for 72 hours at […] and then transferred to 70% ethanol solution where they were stored at 4° C. Tissue was paraffin-processed using convention dehydration and embedding, and then sectioned at 5 μm intervals.
Tissues were deparaffinized and rehydrated. Slides were placed in a plastic Coplin jar containing either distilled water or a combination of formaldehyde scavengers in combination with an enhancer. Jars were covered with a loose fitting screw cap and heated in a pressure cooker for 45 minutes at 95° C. After heating, the Coplin jars were removed and allowed to cool and rinsed in TBST for five minutes.
Immunohistochemical staining was performed using a three-step immunostaining technique using the ABC method. Briefly, all incubations were performed as follows: 1) primary antibodies were incubated overnight at 4° C., 2) secondary antibodies were incubated for 10 minutes at room temperature, 3) streptavidin-conjugated enzyme was incubated for 10 minutes at room temperature, 4) peroxidase substrate was incubated for 1 minute.

RNA = test: Recovery of RNA from formalin-fixed paraffin-embedded tissue samples (FIG. 30)
Collagen IV [3] = test: Immunohistochemical staining of Collagen IV after antigen retrieval with 0.05% maleic acid and cooling in a second solution; parameters: species or system mouse; key to Result (immunoreactivity, Collagen IV staining): − being non-reactive; Immunoreactivity was scored on a scale of − to +++; Immunoreactivity was scored on a scale of − to +++; +++ being highly reactive; settings: for immunostaining of Collagen IV after antigen retrieval with maleic acid and cooling to room temperature: FIGS. 31A-31C, compared to dH2O; for Result (immunoreactivity, Collagen IV staining): Table 9, retrieval with 0.05% maleic acid 45 minutes at 95° C., then cooling to room temperature in the named solution (10% guanidine or 2,2,2-trifluoroethanol in water)
Procedure: 12-month-old […] mice were housed under controlled environment conditions on a condition al 12 hour light dark cycle. Following sacrifice, brains were post-fixed in 4% paraformaldehyde for 72 hours at 4° C. and then transferred to 70% ethanol solution where they were stored at 4° C. Tissue was paraffin-processed using convention dehydration and embedding, and then sectioned at 5 μm intervals. Tissues were deparaffinized and rehydrated. […] Jars were covered with a loose fitting screw cap and heated in a pressure cooker for 45 minutes at 95° C. After heating, the Coplin jars were removed and slides were allowed to cool to room temperature in either 10% guanidine or 2,2,2-trifluoroethanol in water and rinsed in TBST for five minutes. Immunohistochemical staining was performed using a three-step immunostaining technique using the ABC method. Briefly, all incubations were performed as follows: 1) primary antibodies were incubated overnight at 4° C., 2) secondary antibodies were incubated for 10 minutes at room temperature, 3) streptavidin-conjugated enzyme was incubated for 10 minutes at room temperature, 4) peroxidase substrate was incubated for 1 minute.

Angiotensin I = test: Mass spectrometry of formalin treated Angiotensin I after heating with aldehyde scavenging compounds; settings: 5% compound, 95° C., 45 minutes
Procedure: Angiotensin I is treated with formalin at room temperature for 48 hours. […] Mass-spectrometry is used to analyze the compositions of the Angiotensin I before and after treatment by each compound. Samples of Angiotensin I before (FIG. 11A) and after (FIG. 11B) formalin treatments are used as the controls for the experiment. Peaks at m/z 1296 represent unmodified Angiotensin I. Peaks at m/z 1308 represent Angiotensin I with 1 methylene unit. Peaks at m/z 1320 represent Angiotensin I with 2 methylene units. Peaks at m/z 1338 represent Angiotensin I with 1 methylene unit and 1 hydroxymethylene group. Peaks at m/z 1350 represent Angiotensin I with 2 methylene units and 1 hydroxymethylene group.

GFAP = test: Microscope images of GFAP immunostaining after antigen retrieval (FIGS. 15-18)
blood vessels = test: Antigen retrieval in paraformaldehyde fixed vascular tissue, visualization of blood vessels; settings: paraformaldehyde fixed tissue heated in solution of compound (FIGS. 4A-4E)
Text: Paraformaldehyde fixed tissue samples are heated in solutions of compounds prepared as described in Example 1 and the blood vessels in the tissue are visualized.

collagen IV [4] = test: Antigen retrieval and immunodetection of collagen IV in paraformaldehyde fixed tissues (general method); settings: 0.05% maleic anhydride pretreatment; compared with TBST, low pH sodium citrate, pepsin (FIGS. 2A-2D)
Procedure: The solution is heated to about 70° C. to about 95° C. for about 30 minutes. The ensuing chemical reaction enables the unmasking or retrieval of the chemical epitopes. The formaldehyde-fixed tissue is placed into the heated solution for about 30 minutes and then washed. The tissues can then be stained to detect the protein of interest.

[5] = Table 2, aniline compounds, FFPE mouse brain sections
[6] = compared to control buffer (FIG. 30)
[7] = microscope images, figure legends

O=C1CC(=O)NC(=O)N1 [barbituric acid]
immunostaining of Collagen IV after antigen retrieval (collagen IV [1]): enhanced immunostaining

Nc1ccccc1 [Aniline]
Result (immunoreactivity, Collagen IV staining) (Collagen IV [2]; [5]): ++
recovery of RNA from formalin-fixed paraffin-embedded tissue samples (RNA; [6]): enhanced recovery of RNA
immunostaining of Collagen IV after antigen retrieval (collagen IV [1]; [7]): enhanced immunostaining

N=C(N)N [Guanidine]
immunostaining of Collagen IV after antigen retrieval with maleic acid and cooling to room temperature (Collagen IV [3]): enhanced immunostaining
Result (immunoreactivity, Collagen IV staining) (Collagen IV [3]): ++
amount of Angiotensin I with 2 methylene units (m/z 1320) (Angiotensin I): does not exhibit any impact
content of Angiotensin I with 1 methylene unit and 1 hydroxymethylene group (m/z 1338) (Angiotensin I): minimal ability to retrieve
immunostaining of Collagen IV after antigen retrieval (collagen IV [1]; [7]): enhanced immunostaining

NO [1% Hydroxylamine, Hydroxylamine]
Result (immunoreactivity, Collagen IV staining) (Collagen IV [2]; Table 3, 1% hydroxylamine alone or with 4-aminophenol, concentrations in label): +
Result (immunoreactivity, Collagen IV staining) (Collagen IV [2]; Table 4, 1% hydroxylamine alone or with aniline, concentrations in label): +
Result (immunoreactivity, Collagen IV staining) (Collagen IV [2]; Table 5, 0.5% hydroxylamine alone or with aniline, concentrations in label): +
retrieval of formalin adducts of Angiotensin I (Angiotensin I): significant retrieval of formalin adducts
recovery of RNA from formalin-fixed paraffin-embedded tissue samples (RNA; [6]): enhanced recovery of RNA
immunostaining of Collagen IV after antigen retrieval (collagen IV [1]; [7]): enhanced immunostaining

O=C(O)CC(O)(CC(=O)O)C(=O)O [citric acid, reference compound]
amount of Angiotensin I with 2 methylene units (m/z 1320) (Angiotensin I): significantly reduce
content of Angiotensin I with 1 methylene unit and 1 hydroxymethylene group (m/z 1338) (Angiotensin I): significantly reduce
retrieval of formalin adducts of Angiotensin I (Angiotensin I): significant retrieval of formalin adducts

N[C@@H](CS)C(=O)O [cysteine]
retrieval of formalin adducts of Angiotensin I (Angiotensin I): significant retrieval of formalin adducts
immunostaining of GFAP after antigen retrieval (GFAP; [7]): enhanced immunostaining

O=C(O)/C=C/C(=O)O [fumaric acid, reference compound]
antigen retrieval with visualization of the blood vessels (blood vessels): significant reduction in activity

CCON [O-ethylhydroxylamine]
recovery of RNA from formalin-fixed paraffin-embedded tissue samples (RNA; [6]): enhanced recovery of RNA
immunostaining of Collagen IV after antigen retrieval (collagen IV [1]; [7]): enhanced immunostaining

COc1ccc(N)cc1 [p-Anisidine]
Result (immunoreactivity, Collagen IV staining) (Collagen IV [2]; [5]): ++
recovery of RNA from formalin-fixed paraffin-embedded tissue samples (RNA): enhanced recovery of RNA
immunostaining of Collagen IV after antigen retrieval (collagen IV [1]): enhanced immunostaining

Cc1ncc(CO)c(CN)c1O [pyridoxamine]
immunostaining of Collagen IV after antigen retrieval (collagen IV [1]; [7]): enhanced immunostaining

CC(N)(CO)CO [2-amino-2-methyl-1,3-propanediol]
immunostaining of Collagen IV after antigen retrieval (collagen IV [1]; [7]): enhanced immunostaining

O=S([O-])O.[Na+] [sodium bisulfite]
immunostaining of GFAP after antigen retrieval (GFAP): enhanced immunostaining

NC(=O)C[C@H](N)C(=O)O [L-asparagine]
immunostaining of Collagen IV after antigen retrieval (collagen IV [1]; [7]): enhanced immunostaining

CC1(C)CC(=O)CC(=O)C1 [dimedone, 5,5-dimethyl-1,3-cylohexanedione]
immunostaining of Collagen IV after antigen retrieval (collagen IV [1]; [7]): enhanced immunostaining

O=C1CCCN1 [2-pyrrolidinone]
immunostaining of Collagen IV after antigen retrieval (collagen IV [1]; [7]): enhanced immunostaining

CCCC(N)O (centres unmarked) [1-amino-1-butanol]
immunostaining of Collagen IV after antigen retrieval (collagen IV [1]; [7]): enhanced immunostaining

O=C1CCC(=O)N1 [succinimide]
immunostaining of Collagen IV after antigen retrieval (collagen IV [1]; [7]): enhanced immunostaining

NOCc1ccccc1 [1% O-Benzylhydroxylamine, O-Benzylhydroxylamine]
Result (immunoreactivity, Collagen IV staining) (Collagen IV [2]; Table 6, 1% O-benzylhydroxylamine alone or with aniline, concentrations in label): +
Result (immunoreactivity, Collagen IV staining) (Collagen IV [2]; Table 7, 0.5% O-benzylhydroxylamine alone or with aniline, concentrations in label): +
recovery of RNA from formalin-fixed paraffin-embedded tissue samples (RNA; [6]): enhanced recovery of RNA
immunostaining of Collagen IV after antigen retrieval (collagen IV [1]; [7]): enhanced immunostaining

CC1=C(C)C(=O)OC1=O [2,3-dimethylmaleic anhydride]
antigen retrieval with visualization of the blood vessels (blood vessels): successful antigen retrieval

Nc1ccc(N)cc1 [p-Phenylenediamine]
Result (immunoreactivity, Collagen IV staining) (Collagen IV [2]; [5]): +
immunostaining of Collagen IV after antigen retrieval (collagen IV [1]): enhanced immunostaining

CC(=O)CC(N)=O [acetoacetamide]
immunostaining of Collagen IV after antigen retrieval (collagen IV [1]; [7]): enhanced immunostaining

Nc1ccc(O)cc1 [4-Aminophenol]
Result (immunoreactivity, Collagen IV staining) (Collagen IV [2]; [5]): ++
recovery of RNA from formalin-fixed paraffin-embedded tissue samples (RNA; [6]): enhanced recovery of RNA
immunostaining of Collagen IV after antigen retrieval (collagen IV [1]; [7]): enhanced immunostaining

O=S([O-])S(=O)(=O)[O-].[Na+].[Na+] [sodium metabisulfite]
immunostaining of GFAP after antigen retrieval (GFAP; [7]): enhanced immunostaining

O=C1CCC(=O)O1 [succinic anhydride, reference compound]
antigen retrieval with visualization of the blood vessels (blood vessels): no vasculature is visible

O=C1NCCN1 [imidazolidone]
amount of Angiotensin I with 2 methylene units (m/z 1320) (Angiotensin I): significantly reduce
content of unmodified Angiotensin I (m/z 1296) (Angiotensin I): higher content of unmodified Angiotensin I

COc1ccc(N)c(C(=O)O)c1 [2-Amino-5-methoxybenzoic acid]
Result (immunoreactivity, Collagen IV staining) (Collagen IV [2]; [5]): −
recovery of RNA from formalin-fixed paraffin-embedded tissue samples (RNA; [6]): enhanced recovery of RNA

NCCS [cysteamine]
immunostaining of GFAP after antigen retrieval (GFAP; [7]): enhanced immunostaining

NOCC(=O)O [O-(carboxymethyl)hydroxylamine]
recovery of RNA from formalin-fixed paraffin-embedded tissue samples (RNA; [6]): enhanced recovery of RNA
immunostaining of Collagen IV after antigen retrieval (collagen IV [1]; [7]): enhanced immunostaining

O=C(OC[C@H]1O[C@@H](OC(=O)c2cc(O)c(O)c(OC(=O)c3cc(O)c(O)c(O)c3)c2)[C@H](OC(=O)c2cc(O)c(O)c(OC(=O)c3cc(O)c(O)c(O)c3)c2)[C@@H](OC(=O)c2cc(O)c(O)c(OC(=O)c3cc(O)c(O)c(O)c3)c2)[C@@H]1OC(=O)c1cc(O)c(O)c(OC(=O)c2cc(O)c(O)c(O)c2)c1)c1cc(O)c(O)c(OC(=O)c2cc(O)c(O)c(O)c2)c1 [tannic acid]
immunostaining of Collagen IV after antigen retrieval (collagen IV [1]; [7]): enhanced immunostaining

Nc1ccc(S(=O)(=O)O)cc1 [Sulfanilic acid]
Result (immunoreactivity, Collagen IV staining) (Collagen IV [2]; [5]): ++
recovery of RNA from formalin-fixed paraffin-embedded tissue samples (RNA; [6]): enhanced recovery of RNA
immunostaining of Collagen IV after antigen retrieval (collagen IV [1]; [7]): enhanced immunostaining

CCOc1ccc(N)cc1 [4-Ethoxyaniline]
Result (immunoreactivity, Collagen IV staining) (Collagen IV [2]; [5]): +
immunostaining of Collagen IV after antigen retrieval (collagen IV [1]): enhanced immunostaining

O=C1C=CC(=O)O1 [maleic anhydride]
antigen retrieval and immunodetection of collagen IV (collagen IV [4]): Superior antigen retrieval and immunodetection
antigen retrieval with visualization of the blood vessels (blood vessels): successful antigen retrieval

OCC(F)(F)F [2,2,2-Trifluoroethanol]
immunostaining of Collagen IV after antigen retrieval with maleic acid and cooling to room temperature (Collagen IV [3]): enhanced immunostaining
Result (immunoreactivity, Collagen IV staining) (Collagen IV [3]): ++

Sc1nc(S)nc(S)n1 [1,3,5-triazine-2,4,6-trithiol]
immunostaining of GFAP after antigen retrieval (GFAP; [7]): enhanced immunostaining

From patent publication US10746637B2, “Aldehyde scavenging agent for retrieving elements from fixed tissue” (University of Houston System, priority 2013, dated 2020)
